The test deals with p97 (valosin containing protein, VCP, cdc48) (Homo sapiens, UniProt P55072). The experiment in a line: p97 ATPase inhibition assay. It counts as biochemical.
Chain of p97 (valosin containing protein, VCP, cdc48) (P55072 2-806): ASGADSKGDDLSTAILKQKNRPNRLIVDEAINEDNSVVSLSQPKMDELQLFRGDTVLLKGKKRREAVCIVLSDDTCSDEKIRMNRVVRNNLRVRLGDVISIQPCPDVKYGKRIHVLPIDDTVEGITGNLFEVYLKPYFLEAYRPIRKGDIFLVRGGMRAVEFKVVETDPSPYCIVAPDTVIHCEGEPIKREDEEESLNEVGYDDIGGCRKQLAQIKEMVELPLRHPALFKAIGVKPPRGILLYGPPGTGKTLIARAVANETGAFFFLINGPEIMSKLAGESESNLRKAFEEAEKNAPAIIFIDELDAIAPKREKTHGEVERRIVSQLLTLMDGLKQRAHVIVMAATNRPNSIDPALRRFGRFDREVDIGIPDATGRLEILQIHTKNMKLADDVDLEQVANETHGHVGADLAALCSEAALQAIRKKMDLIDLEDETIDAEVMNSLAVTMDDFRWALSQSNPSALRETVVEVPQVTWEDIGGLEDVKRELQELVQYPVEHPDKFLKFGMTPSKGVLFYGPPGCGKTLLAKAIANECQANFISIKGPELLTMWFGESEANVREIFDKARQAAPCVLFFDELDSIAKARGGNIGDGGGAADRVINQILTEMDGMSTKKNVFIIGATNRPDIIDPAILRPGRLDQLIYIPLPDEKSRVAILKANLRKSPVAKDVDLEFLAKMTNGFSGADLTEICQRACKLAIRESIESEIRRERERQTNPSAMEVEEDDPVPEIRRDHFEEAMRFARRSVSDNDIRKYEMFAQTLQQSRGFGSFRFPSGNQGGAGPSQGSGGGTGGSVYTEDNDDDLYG

Turning to `C=C1OC(=O)C2(C1=O)[C@H](/C=C/C=C/CCC)C=C[C@@H](O)[C@@H]2O` (stereo partly shown) [compound 2, oxaspirol B], the IC50 was 31.2 ± 3 µM.

As usually defined, the IC50 is the concentration that inhibits the measured activity by half. A higher IC50 goes with weaker potency.

The values are drawn from publication PMC4576851 (Organic & biomolecular chemistry, 2015).
